Laboratory results taken from ChEMBL document CHEMBL4808170, “Structure-Based Design of Potent and Orally Active Isoindolinone Inhibitors of MDM2-p53 Protein-Protein Interaction” (J Med Chem, 2021).

Columns and labels:
[1] = Lipophilicity, logD of compound at pH 7.4 by Chromatography; format: physicochemical; details: buffer
[2] = Antiproliferative activity against human SN40R2 cells derivative of SJSA-1 cells expressing mutant TP53 at 30 uM incubated for 72 hrs by Sulforhodamine B assay; format: functional
SJSA-1 [3] = test: Antiproliferative activity against human SJSA-1 cells expressing wild type TP53 incubated for 72 hrs by Sulforhodamine B assay; format: functional
[4] = Plasma protein binding in human incubated for 48 hrs; format: ADME, cell-free; details: read-out: PPB (converted)
[5] = Metabolic stability in CD1 mouse liver microsomes assessed as half life at 1 uM; format: ADME, Microsome
[6] = Plasma protein binding in BALB/c mouse incubated for 48 hrs; format: ADME, cell-free; details: read-out: PPB (converted)
[7] = Oral bioavailability in BALB/c mouse at 5 mg/kg by HPLC analysis; format: ADME, organism-based; details: in vivo
SJSA-1 [8] = test: Antitumor activity in human SJSA-1 cells […] CD-1 mouse xenograft model assessed as increase in p53 expression in tumor at 50 mg/kg, po single dose measured after 6 hrs by MSD analysis relative to control; format: functional
[9] = Oral bioavailability in nonhuman primate at 5 mg/kg by HPLC analysis; format: ADME, organism-based; details: primates, in vivo
SJSA-1 [10] = test: Antitumor activity in human SJSA-1 cells […] CD-1 mouse xenograft model assessed as inhibition of tumor growth at 50 mg/kg, po single dose for 7 days relative to control; format: functional; details: time 7 day
[11] = Inhibition of MDM2/IP3 (unknown origin) protein-protein interaction expressed using TNT T7 coupled reticulocyte lysate system incubated for 90 mins by ELISA
[12] = Plasma clearance in BALB/c mouse at 5 mg/kg, po by HPLC analysis; format: ADME, organism-based
SJSA-1 [13] = test: Antitumor activity in human SJSA-1 cells […] CD-1 mouse xenograft model assessed as increase in p53 expression in tumor at 50 mg/kg, po single dose measured after 3 hrs by MSD analysis relative to control; format: functional
[14] = In vivo clearance in nonhuman primate at 0.2 mg/kg, iv by HPLC analysis; format: ADME, organism-based; details: primates
[15] = Metabolic stability in human liver microsomes assessed as half life at 1 uM; format: ADME, Microsome
CYP3A4 [16] = target: T1, CYP3A4 (Homo sapiens, UniProt P08684); test: Inhibition of human CYP3A4 expressed in human supersomes assessed as half life in presence of NADPH at 1 uM using midazolam as substrate measured after 40 mins; format: ADME; details: supersomes expressing human CYP3A4, probe midazolam
[17] = Toxicity in CD-1 mouse xenografted human SJSA-1 cells assessed as change in body weight at 50 mg/kg, po single dose for 7 days relative to control; format: organism-based; details: in vivo, 168 h, time 7 day
[18] = Toxicity in CD-1 mouse xenografted human SJSA-1 cells assessed as adverse effect at 50 mg/kg, po single dose for 7 days relative to control; format: organism-based; details: in vivo, 168 h, time 7 day
CYP3A4 [19] = target: T1, CYP3A4; test: Inhibition of CYP3A4 (unknown origin) using midazolam as substrate in presence of NADPH at 8 uM; format: ADME; details: probe midazolam

T1 sequence (P08684 whole entry): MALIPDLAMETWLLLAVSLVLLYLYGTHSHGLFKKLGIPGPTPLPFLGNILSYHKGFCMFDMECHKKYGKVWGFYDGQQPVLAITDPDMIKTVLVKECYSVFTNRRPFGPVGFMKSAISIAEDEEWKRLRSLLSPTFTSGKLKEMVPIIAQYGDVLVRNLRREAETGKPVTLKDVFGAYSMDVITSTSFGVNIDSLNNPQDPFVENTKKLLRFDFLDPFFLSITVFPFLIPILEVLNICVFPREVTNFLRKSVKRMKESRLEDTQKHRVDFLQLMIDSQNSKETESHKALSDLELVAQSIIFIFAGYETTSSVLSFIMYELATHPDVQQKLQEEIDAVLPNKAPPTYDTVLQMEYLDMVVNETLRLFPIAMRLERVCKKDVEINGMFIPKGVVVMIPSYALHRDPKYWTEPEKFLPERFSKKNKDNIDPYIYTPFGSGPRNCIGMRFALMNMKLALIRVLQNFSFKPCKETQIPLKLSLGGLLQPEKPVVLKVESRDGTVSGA

chromatographic logD [1]: 3.8 | GI50 (SJSA-1 [3]): 200 nM | fraction unbound at 48 h [4]: 0.086 | half-life at 1 µM [5]: 27 min | fraction unbound at 48 h [6]: 0.094 | bioavailability [7]: 46% | bioavailability [9]: 31% | IC50 [11]: 3.8 nM | CL/F [12]: 11 mL/min/kg | clearance [14]: 11 mL/min/kg | half-life at 1 µM [15]: 52 min | half-life at 1 µM (CYP3A4 [16]): 14 min | inhibition at 8 µM (CYP3A4 [19]): 46%
SMILES: [2H]C([2H])(O)C1(C([2H])([2H])O[C@]2(c3ccc(Cl)cc3)c3c(F)cc(C(C)(C)O)cc3C(=O)N2Cc2ccc(C#N)cn2)CC1
Activity [2]: 20% | fold change (FC) (SJSA-1 [8]): 10.3 | T/C (SJSA-1 [10]): 21% | fold change (FC) (SJSA-1 [13]): 3.7 | Activity [17]: Non-Toxic | Activity [18]: Non-Toxic
